Experimental data: ChEMBL document CHEMBL1201862, “PubChem BioAssay data set” (2004)
The source made the active and inactive calls.

Tests used:
[1] = general mammalian cell viability loss – activator set, cherry-pick, cytotoxicity control for miR-122 modulator project, dose response (AID 720690); format: functional, cell-based;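 also: HEK293T human cells scored for general mammalian cytotoxicity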
[2] = activation of miR-122 Renilla sensor silencing – cell-based, Huh7 psiCHECK-miR122, Renilla luciferase, cherry-picked, dose response (AID 651956); format: functional;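 also: huh7 hepatoma cells stably carrying a psiCHECK-2 miR-122 sensor plasmid; renilla luciferase signal reporting endogenous miR-122 activity after 48 h compound exposure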
Paired box protein Pax-8 = Paired box protein Pax-8 (Homo sapiens, UniProt Q06710); assay: PAX8 transcriptional activity inhibition in RMG-I – RMG-I cells, luciferase, cherry-pick, dose response (AID 687027); format: functional, cell-based;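 also: luciferase reporter driven by Pax8 target thyroperoxidase promoter measured by SteadyGlo luminescence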
Chain of Paired box protein Pax-8 (Q06710 whole entry): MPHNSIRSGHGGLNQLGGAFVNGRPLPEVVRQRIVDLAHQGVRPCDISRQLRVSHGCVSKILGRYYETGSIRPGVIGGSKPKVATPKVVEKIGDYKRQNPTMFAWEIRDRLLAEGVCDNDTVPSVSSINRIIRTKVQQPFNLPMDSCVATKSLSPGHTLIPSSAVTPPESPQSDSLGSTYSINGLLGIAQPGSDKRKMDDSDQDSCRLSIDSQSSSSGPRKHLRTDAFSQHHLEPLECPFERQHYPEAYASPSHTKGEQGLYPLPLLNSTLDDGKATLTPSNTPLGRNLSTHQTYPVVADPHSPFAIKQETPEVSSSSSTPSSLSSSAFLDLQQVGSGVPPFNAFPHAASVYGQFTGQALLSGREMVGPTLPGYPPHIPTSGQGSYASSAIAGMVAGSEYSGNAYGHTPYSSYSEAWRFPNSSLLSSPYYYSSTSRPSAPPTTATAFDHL

[3] = PAX8-dependent cell viability loss – plate reader, dry powder, dose response (AID 743049); format: functional, cell-based
[4] = OVCAR8 cell viability loss – plate reader, dry powder samples, PAX8 project, dose response (AID 743197); format: functional, cell-based; details: OVCAR-8
[5] = OVCAR4 cell viability loss – plate reader, dry powder, SA11, cytotoxicity control for PAX8 inhibitor project, dose response (AID 743150); format: functional, cell-based; details: OVCAR-4
[6] = A2780 cell killing – plate reader, dry powder samples, cytotoxicity control, dose response (AID 743046); format: functional, cell-based
[7] = COV434 cell viability loss – plate reader, dry powder, SA7, cytotoxicity control for PAX8 inhibitor project, dose response (AID 743145); format: functional, cell-based
[8] = PAX5 cellular inhibition readout – cell-based, plate reader, dry powder samples, selectivity assay for PAX8 inhibitor project, dose response (AID 743047); format: functional;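 also: HEK293 cells carrying a Pax5 driven CD19 promoter luciferase reporter; potency of inhibitors that lower reporter luminescence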
[9] = COV362 cell viability loss – plate reader, dry powder, SA12, cytotoxicity control for PAX8 inhibitor project, dose response (AID 743144); format: functional, cell-based
[10] = inhibitors acting on PAX2 in cells – cell-based, plate reader, dry powder samples, selectivity assay for PAX8 inhibitor project, dose response (AID 743048); format: functional;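 also: HEK293 cells carrying a WT1 promoter luciferase reporter driven by expressed Pax2; potency is for inhibition of Pax2 driven reporter signal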
[11] = OVCAR-3 cell viability loss – plate reader, dry powder samples, PAX8 inhibitor project, dose response (AID 743044); format: functional, cell-based
[12] = general cell-killing toxicity readout – plate reader, dry powder samples, cytotoxicity control for PAX8 inhibitor project, dose response (AID 743021); format: functional, cell-based
[13] = IGROV1 cell killing – plate reader, dry powder samples, PAX8 inhibitor project, dose response (AID 743043); format: functional, cell-based; details: IGROV-1
[14] = viability loss in CEM21 cells – cell-based, CellTiter-Glo luminescence, cherry-picked, cytotoxicity control for viral fusion inhibitor project, dose response (AID 652042); format: functional;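 also: potency for signal decrease meaning cytotoxicity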
[15] = blockers of HIV-1 ZM109 envelope-driven cell-cell fusion – HeLa effector, CEM target cells, luciferase, cherry-pick, dose response (AID 652058); format: functional, cell-based;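 also: luciferase signal from HIV-1 Env mediated cell-cell fusion of effector and target cells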
[16] = blockers of HIV-1 envelope-mediated cell-cell fusion – cherry-pick, dose response (AID 652057); format: functional, cell-based
[17] = HIV-1 AD8 envelope cell-cell fusion blockers – cherry-pick, dose response (AID 652062); format: functional, cell-based;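 also: luciferase signal from cell-cell fusion driven by HIV-1 clade B AD8 Env; potency is for inhibitors of fusion seen as a drop in luminescence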
[18] = toxicity toward immortalized ovarian surface epithelium – cell-based, plate reader, dry powder samples, cytotoxicity control for PAX8 inhibitor project, dose response (AID 743045); format: functional
[19] = viability loss in A549 lung cancer cells – cell-based, cherry-picks, […], cytotoxicity control, dose response (AID 1053119); format: functional
[20] = viability loss in HEK293 kidney cells – cell-based, cherry-picks, set 5, cytotoxicity control, dose response (AID 1053117); format: functional
[21] = toxicity to human hepatoma HepG2 cells – cell-based, cherry-picked samples, cytotoxicity control, dose response (AID 1159577); format: functional
[22] = viability loss in HepG2 hepatoma cells – cell-based, cherry-picks, set 5, cytotoxicity control, dose response (AID 1053118); format: functional
[23] = P. falciparum Dd2 growth inhibitors, dose response, SYBR Green, cherry-picked samples (AID 1159567); format: functional, cell-based
[24] = blockers of FN fibrillogenesis by fibroblasts – AH1F cells, Alexa488-FN fluorescence, cherry-picks, dose response (AID 1035475); format: functional, cell-based
Protein RecA = molecular target: T1, Protein RecA (Mycobacterium tuberculosis, UniProt P9WHJ3); assay: Fluorescence Cell-Free Homogeneous Dose Retest to Identify Inhibitors of RecA-Intein Splicing Activity. [Related pubchem assays (depositor defined):AID2097, AID2223, AID489010, AID492950]; format: functional
T1 sequence (P9WHJ3 whole entry): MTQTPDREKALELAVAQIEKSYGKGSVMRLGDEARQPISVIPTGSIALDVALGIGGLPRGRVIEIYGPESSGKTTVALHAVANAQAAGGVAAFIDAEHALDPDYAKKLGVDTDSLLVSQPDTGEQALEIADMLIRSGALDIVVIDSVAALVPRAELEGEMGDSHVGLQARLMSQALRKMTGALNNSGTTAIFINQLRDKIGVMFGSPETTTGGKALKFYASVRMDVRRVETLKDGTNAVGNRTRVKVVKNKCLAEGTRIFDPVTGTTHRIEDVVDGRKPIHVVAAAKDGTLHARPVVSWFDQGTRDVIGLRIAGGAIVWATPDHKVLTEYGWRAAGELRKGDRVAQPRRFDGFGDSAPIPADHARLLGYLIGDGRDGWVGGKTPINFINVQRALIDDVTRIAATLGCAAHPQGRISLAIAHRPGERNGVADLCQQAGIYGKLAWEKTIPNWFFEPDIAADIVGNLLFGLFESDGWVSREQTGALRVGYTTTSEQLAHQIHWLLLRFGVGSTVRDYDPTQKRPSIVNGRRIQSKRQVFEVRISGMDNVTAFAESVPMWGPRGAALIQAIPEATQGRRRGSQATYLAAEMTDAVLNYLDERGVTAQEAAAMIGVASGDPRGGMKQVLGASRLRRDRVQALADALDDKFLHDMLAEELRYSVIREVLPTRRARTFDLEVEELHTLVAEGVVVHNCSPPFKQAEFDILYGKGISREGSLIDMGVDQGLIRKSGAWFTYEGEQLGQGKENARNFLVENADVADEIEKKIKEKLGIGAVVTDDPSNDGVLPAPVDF

[25] = molecular target: T2, Sentrin-specific protease 8 (Homo sapiens, UniProt Q96LD8); format: functional
T2 sequence (Q96LD8 whole entry): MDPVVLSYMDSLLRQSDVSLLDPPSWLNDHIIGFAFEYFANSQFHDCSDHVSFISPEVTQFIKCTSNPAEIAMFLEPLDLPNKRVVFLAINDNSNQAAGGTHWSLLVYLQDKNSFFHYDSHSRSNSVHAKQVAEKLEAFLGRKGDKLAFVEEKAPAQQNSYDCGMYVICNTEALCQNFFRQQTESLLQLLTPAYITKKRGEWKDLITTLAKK

[26] = molecular target: T3, Heat shock factor protein 1 (Mus musculus, UniProt P38532); assay: decrease of HSF1-responsive luciferase luminescence – cell-based, NIH3T3, dose retest, confirmation (AID 2382); format: functional;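 also: NIH3T3 fibroblasts with HSF1-driven luciferase reporter stressed by proteasome inhibitor MG132; luminescence from HSF1-driven luciferase expression after 8 hours of MG132 stress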
T3 sequence (P38532 whole entry): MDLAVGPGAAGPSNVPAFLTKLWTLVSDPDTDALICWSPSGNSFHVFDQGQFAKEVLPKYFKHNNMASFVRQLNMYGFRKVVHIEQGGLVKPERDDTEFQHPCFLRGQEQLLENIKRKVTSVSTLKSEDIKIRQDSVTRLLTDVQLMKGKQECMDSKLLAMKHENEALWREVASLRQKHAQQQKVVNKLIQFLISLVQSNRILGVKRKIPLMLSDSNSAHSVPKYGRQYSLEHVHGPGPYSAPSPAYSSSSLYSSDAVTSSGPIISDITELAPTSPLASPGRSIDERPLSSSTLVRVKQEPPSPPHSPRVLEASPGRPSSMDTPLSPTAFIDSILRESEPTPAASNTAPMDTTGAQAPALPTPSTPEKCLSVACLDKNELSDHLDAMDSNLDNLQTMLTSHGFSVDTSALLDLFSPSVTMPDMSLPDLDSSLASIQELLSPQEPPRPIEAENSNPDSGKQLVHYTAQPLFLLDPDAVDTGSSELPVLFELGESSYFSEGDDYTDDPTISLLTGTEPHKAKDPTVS

[27] = molecular target: T2, Sentrin-specific protease 8; format: functional; remark: listed apart in the source
[28] = molecular target: Tyrosyl-DNA phosphodiesterase 2 (Homo sapiens, UniProt O95551); assay: potency against TDP2 phosphodiesterase activity – biochemical, epi absorbance, IC50, dose response (AID 743297)
Chain of Tyrosyl-DNA phosphodiesterase 2 (O95551 whole entry): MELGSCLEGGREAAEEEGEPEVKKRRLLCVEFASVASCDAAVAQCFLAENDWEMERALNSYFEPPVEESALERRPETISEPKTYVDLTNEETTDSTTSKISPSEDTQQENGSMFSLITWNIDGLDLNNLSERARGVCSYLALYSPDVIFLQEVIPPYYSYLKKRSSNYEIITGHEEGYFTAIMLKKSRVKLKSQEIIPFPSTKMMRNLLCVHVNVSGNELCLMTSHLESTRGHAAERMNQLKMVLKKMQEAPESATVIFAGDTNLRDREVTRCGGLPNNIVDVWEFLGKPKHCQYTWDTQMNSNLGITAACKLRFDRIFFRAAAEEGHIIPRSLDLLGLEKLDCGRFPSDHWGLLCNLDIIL

[29] = molecular target: T4, Replicative DNA helicase DnaB (Mycobacterium tuberculosis, UniProt P9WMR3); assay: DnaB intein splicing inhibitors, dose response, biochemical, cell-free fluorescence (AID 449749); format: functional
T4 sequence (P9WMR3 whole entry): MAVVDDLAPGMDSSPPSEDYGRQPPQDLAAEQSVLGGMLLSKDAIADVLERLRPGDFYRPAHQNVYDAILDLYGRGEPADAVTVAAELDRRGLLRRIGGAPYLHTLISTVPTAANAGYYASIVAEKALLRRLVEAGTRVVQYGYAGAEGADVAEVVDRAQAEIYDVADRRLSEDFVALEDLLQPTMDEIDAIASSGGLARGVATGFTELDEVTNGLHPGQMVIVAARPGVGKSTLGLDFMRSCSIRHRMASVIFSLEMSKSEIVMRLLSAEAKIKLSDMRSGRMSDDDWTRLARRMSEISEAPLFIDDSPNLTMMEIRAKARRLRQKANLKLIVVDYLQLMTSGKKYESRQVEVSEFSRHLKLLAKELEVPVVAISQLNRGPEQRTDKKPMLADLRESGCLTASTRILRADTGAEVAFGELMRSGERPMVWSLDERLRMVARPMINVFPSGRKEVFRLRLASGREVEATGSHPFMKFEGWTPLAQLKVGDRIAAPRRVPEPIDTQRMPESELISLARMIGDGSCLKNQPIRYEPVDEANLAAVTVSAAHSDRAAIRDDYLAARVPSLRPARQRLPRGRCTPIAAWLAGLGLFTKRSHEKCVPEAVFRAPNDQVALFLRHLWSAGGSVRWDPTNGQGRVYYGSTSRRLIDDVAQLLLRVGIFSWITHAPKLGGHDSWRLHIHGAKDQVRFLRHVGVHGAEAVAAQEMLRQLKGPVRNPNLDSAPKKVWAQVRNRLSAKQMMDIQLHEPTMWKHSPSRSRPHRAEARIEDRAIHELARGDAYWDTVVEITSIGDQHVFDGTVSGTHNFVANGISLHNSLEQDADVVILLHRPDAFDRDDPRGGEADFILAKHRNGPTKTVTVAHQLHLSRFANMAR

CN1C(=O)c2cc(NC(=O)c3ccc(C(F)(F)F)cc3)ccc2OC[C@@H]2O[C@H](CC(=O)NCc3ccc4c(c3)OCO4)CC[C@H]21
AC50 [1]: 34.9 µM (active) | AC50 [2]: 53.6 µM (active)

N#C[C@@H]1[C@H](c2ccc(C#CC3CCCC3)cc2)[C@H](CO)N1C(=O)Nc1ccc(F)cc1
AC50 (Paired box protein Pax-8): 10.5 µM (active) | AC50 [3]: 19.8 µM (active) | AC50 [4]: > 70 µM (inactive) | AC50 [5]: 18.8 µM (active) | AC50 [6]: 19.4 µM (active) | AC50 [7]: 46.9 µM (active) | AC50 [8]: 9.89 µM (active) | AC50 [9]: 62.6 µM (active) | AC50 [10]: 9.84 µM (active)

COc1ccc(-c2ccc3c(c2)[C@H]2[C@H](CCN2S(=O)(=O)c2ccc(F)cc2)[C@H](CO)N3C)cc1
AC50 [11]: 19.3 µM (active) | AC50 (Paired box protein Pax-8): 8.98 µM (active) | AC50 [12]: 63.7 µM (active) | AC50 [4]: 31.8 µM (active) | AC50 [13]: 34.4 µM (active)

C[C@@H]1CN([C@@H](C)CO)C(=O)Cc2cc(NS(=O)(=O)c3ccccc3)ccc2O[C@H]1CN(C)Cc1ccc(Cl)c(Cl)c1
AC50 [11]: 11 µM (active) | AC50 (Paired box protein Pax-8): 2.42 µM (active) | AC50 [14]: 20.3 µM (active) | AC50 [12]: 3.32 µM (active) | AC50 [15]: 0.289 µM (active) | AC50 [16]: 8.55 µM (active) | AC50 [17]: 1.19 µM (active) | AC50 [4]: 11.5 µM (active) | AC50 [13]: 5.66 µM (active) | AC50 [6]: 24.9 µM (active) | AC50 [18]: 10.8 µM (active)

CO[C@@H]1CN(C)C(=O)c2cc(NC(=O)Nc3ccc(Cl)c(Cl)c3)ccc2OC[C@@H](C)NC[C@@H]1C
AC50 [19]: > 52 µM (inactive) | AC50 [20]: 45.9 µM (active) | AC50 [21]: 18.2 µM (active) | AC50 [22]: > 52 µM (inactive) | AC50 [23]: 5.7 µM (active)

O=S(=O)(c1cccc(F)c1)N1CC[C@@H]2[C@H](CO)Nc3ccc(-c4cccc(F)c4)cc3[C@@H]21
AC50 [19]: 33.4 µM (active) | AC50 [20]: 27.2 µM (active) | AC50 [24]: > 70 µM (inactive) | AC50 [22]: 42 µM (active)

C[C@@H]1CN([C@@H](C)CO)C(=O)c2cc(NC(=O)C3CCCCC3)ccc2O[C@H]1CN(C)Cc1ccc(-c2ccccc2)cc1
AC50 [20]: > 52 µM (inactive) | AC50 [24]: 30.9 µM (active)

Nn1cnnc1N/N=C/c1ccc(Cl)c([N+](=O)[O-])c1
EC50 (Protein RecA): 10.3 µM (active) | IC50 [25]: 21.7 µM (active) | EC50 [26]: 10.2 µM (active) | IC50 [27]: 23.2 µM (active) | IC50 [28]: 81.2 µM (inactive) | AC50 [29]: 18.1 µM (active)
